Where a SMILES comes first, the peptide text is derived from it. Bridges are numbered along the chain shown (N, C = ends). [ ]: non-standard residue; d: D form. R8 = C=CCCCCCC[C@@](C)(N)C(=O)O; S5 = C=CCCC[C@](C)(N)C(=O)O
Experiments:
[1] = system: NLRP3 inflammasome; assay: IL-1β release from THP-1 cells stimulated with LPS and nigericin (ELISA); assay type: cell-based, human; conditions: 10, 50 and 100 μM peptide for 4 hours, then LPS 4 hours, nigericin 1 hour; Fig. 6
Protocol: We next examined whether the ASC peptides could inhibit IL-1β production, which is regulated by the inflammasome. We used THP-1 human monocytic cells to study inflammasome activation as they express high levels of NLRP3, ASC, and pro-casp-1. THP-1 cells were incubated with ms_ASC^PYD #1–6 or ms_NLRP3^PYD peptides at increasing concentrations for 4 hours and were then stimulated with LPS for 4 hours, followed by the NLRP3 activator nigericin for 1 hour. IL-1β levels were measured in the culture supernatant. […] The ms_ASC^PYD peptides reduced IL-1β production from THP-1 cells in response to LPS/nigericin stimulation to variable degrees (Fig. 6A). […] We decided to continue investigating in detail the inhibitory effects of ms_ASC^PYD #5 and #6 peptides, as their estimated binding energies matched well with the experimental data of suppression of ASC-dependent IL-1 release in a dose-dependent manner. Since ms_ASCPYD #6 is the shorter version of ms_ASCPYD #5, this selection also enabled us to verify the effect of varying peptide lengths.
Human monocytic THP-1 cells (1 × 10^7 cells) were plated in a 10-cm tissue culture dish and treated with PMA (200 nM) overnight to differentiate monocytic cells into macrophages. Cells were then washed and allowed to rest in fresh media for another day. For stimulation, differentiated THP-1 cells were trypsinized and seeded in 96-well plates (2 × 10^6/well). Peripheral blood mononuclear cells were isolated by Ficoll-Hypaque density gradient centrifugation from buffy coats obtained from anonymous donors provided by the National University Hospital Blood Bank, Singapore. Isolation of monocytes was performed using negative selection with the Monocyte Isolation Kit II (Miltenyi Biotech), following the manufacturer’s instructions. Monocytes were plated in tissue culture non-treated 96-well plates (2.5 × 10^5/well) in 250 µl RPMI 1640-Glutamax media supplemented with 3% human AB serum (Gemini Bio Products).
THP-1 cells and monocytes were incubated with NLRP3^PYD (12.5–25–50 μM), ASC^PYD #5 (12.5-25-50-100 μM) or ASC^PYD #6 (12.5-25-50-100 μM) for the indicated durations. Cells were then washed once with PBS and primed with E. coli LPS (0.1 μg/ml, Invivogen) for 4 h followed by stimulation with nigericin (10 μM) for an additional 1 h or ATP ([…]) for an additional 30 min. The cell culture supernatants were then collected and centrifuged at 500 × g to remove cells and cellular debris.
IL-1β levels were measured using antibodies from eBioscience (cat. #14-7018-81 and #13-7016-85), following the manufacturer’s instructions. IL-18 levels were measured using antibodies from MBL (D044-3 and D045-6) following the manufacturer’s instructions. The absorbance was measured at 450 nm with the reference wavelength at 570 nm, using an M200 Infinite plate reader (Tecan).

[2] = Circular dichroism, percentage of helicity (K2D3); assay type: physicochemical; conditions: CD, room temperature, water, 100 μM peptide; estimated with K2D3
Description: The conformation of helix 2 (^16TAEELKKFKLKLLSV^30) bound to ASC^PYD (Fig. 1A) was used as the starting structure for the peptide-protein interaction modeling. Following I,I + 7 stapling scheme, we inserted a hydrocarbon staple across positions 5 and 12 along the peptide and then introduced mutations to produce a set of stapled peptides. Two variants of the template peptide were designed – a short version containing 13 residues (ms_ASC^PYD #6) and a long version containing 15 residues (ms_ASC^PYD #1–5) with two additional residues at the N-terminus (Table 1). These two additional residues were inserted to increase the length of the peptide, thus potentially enabling sufficient conformational flexibility for the region involving the critical Arg3 to remain helical. A similar approach was taken to introduce the staple in the ms_NLRP3^PYD peptide. As determined from Circular Dichroism (CD) spectra, inserting the I,I + 7 staple had the intended effect of increasing helicity of the peptides (Fig. 3). […] Percentage of helicity was much higher for ASC^PYD stapled peptides #5 and #6, 95% and 70% respectively at 100 μM peptide concentration. Percentage of helicity for the peptides were estimated from the web server K2D3[36] using CD data.
Figure 3 Circular dichroism (CD) spectra of (A) NLRP3^PYD and (B) ASC^PYD peptides to measure secondary structures.

[3] = target: ASC PYD (Homo sapiens) (UniProt Q9ULZ3); assay: NMR titration; conditions: cited from earlier work

Percentage of helicity [2] | Compound | IL-1β release (in words) [1] | Kd [3]
– | CC(=O)N[C@H](C(=O)N[C@@H](C)C(=O)N[C@@H](CCCNC(=N)N)C(=O)N[C@@H](CCC(=O)O)C(=O)N[C@]1(C)CCCCCCC=CCCC[C@@](C)(C(=O)N[C@@H](CCC(=O)O)C(=O)N[C@@H](CO)C(=O)N[C@H](C(N)=O)C(C)C)NC(=O)[C@H](CCCCN)NC(=O)[C@H](Cc2ccccc2)NC(=O)[C@H](CCCCN)NC(=O)[C@H](C)NC(=O)[C@H](CCCCN)NC(=O)[C@H](CCCCN)NC1=O)[C@@H](C)O [ms_ASC^PYD #2] (Ac-TARE[R8]KKAKFK[S5]ESV-NH2; staple 5-12) | inability to suppress IL-1β release | –
48% | CC(=O)N[C@H](C(=O)N[C@@H](CC(=O)O)C(=O)N[C@]1(C)CCCCCCC=CCCC[C@@](C)(C(=O)N[C@@H](CCC(=O)O)C(=O)N[C@@H](CC(=O)O)C(=O)N[C@@H](Cc2ccc(O)cc2)C(N)=O)NC(=O)[C@H](Cc2c[nH]cn2)NC(=O)[C@H](Cc2ccccc2)NC(=O)[C@H](CCCCN)NC(=O)[C@H](C)NC(=O)[C@H](CCCCN)NC(=O)[C@H](CCCCN)NC1=O)C(C)C [ms_NLRP3^PYD] (Ac-VD[R8]KKAKFH[S5]EDY-NH2; staple 3-10) | produced less IL-1β in a dose-dependent manner | –
– | ASC PYD (from UniProt Q9ULZ3) | – | 65 µM
no helicity | Ac-VDLKKFKMHLEDY-NH2 [wt_NLRP3^PYD] | – | –

— paper PMC6426897, “Inhibition of NLRP3 inflammasome activation by cell-permeable stapled peptides” (Scientific Reports, 2019)
